From US7109329B2, “Neurologically active compounds and compounds with multiple activities” (priority 1988, dated 2006)

experiment: Reversal of guanabenz-induced anesthesia and hypothermia by antagonists; format: in vivo, rat; details: guanabenz-treated rats (4 mg I.P.); Yohimbine 10 mg I.P.
Protocol: The effect can also be partially reversed, or reversed in stages, if desired, by administering several smaller aliquots of the antagonist.
Room temperature was 21.5° C. […] The control rats, injected only with the carrier dextrose solution, maintained a relatively constant temperature during the entire test period under identical conditions of the test.

| Molecule | effect on guanabenz-induced anesthesia | effect on guanabenz-induced hypothermia (body temperature) |
| --- | --- | --- |
| COC(=O)[C@@H]1[C@H]2C[C@H]3c4[nH]c5ccccc5c4CCN3C[C@@H]2CC[C@@H]1O [Yohimbine] | brought out of anesthesia | hypothermia was simultaneously reversed |

same assay, conditions: rat, in vivo

| Molecule | antagonism of both the hypothermic and anesthetic effects of guanidino compounds | antagonism of the hypothermic effect substantially without reducing the anesthetized condition |
| --- | --- | --- |
| Cn1c(=O)c2c(ncn2CC(=O)NCc2nc3ccccc3[nH]2)n(C)c1=O [Compound 96, 2-(Theophylline-7-acetamido)-2-methylbenzimidazole] | reverse both the hypothermic and anesthetic effects |  |
| Cn1c(=O)c2c(ncn2CC(=O)NC(=O)c2ccc(C(=N)N)cc2)n(C)c1=O [Compound 97, 4-(Amidino)-N-(theophylline-7-acetyl)-benzamide] | reverse both the hypothermic and anesthetic effects |  |
| COC(=O)[C@@H]1[C@H]2C[C@H]3c4[nH]c5ccccc5c4CCN3C[C@@H]2CC[C@@H]1O [Yohimbine] | reverse both the hypothermic and anesthetic effects |  |
| c1ccc(CC2=NCCN2)cc1 [tolazoline] |  | effect-specific alpha2-antagonists |
| C=CCN1CC[C@]23c4c5ccc(O)c4O[C@H]2C(=O)CC[C@@]3(O)[C@H]1C5 [Naloxone] | not found to be a useful antagonist |  |

same assay, conditions: six anesthetized rats also injected with aminophylline, then tolazoline

| Molecule | reversal of anesthesia-hypothermia induced by guanabenz | time until anesthesia-hypothermia reversed and body temperature normal |
| --- | --- | --- |
| c1ccc(CC2=NCCN2)cc1 [tolazoline] | completely reversed | ≤ 25 min |

experiment: Activities and properties of the compounds (Table III codes listed as Specific Properties in Table IV); details: not given
Text: Certain of the compounds produce a profound hypothermia, but without anesthetizing. […] Table III, following, sets forth a list of the other properties of these guanidino compounds, which arise from their alpha-adrenergic agonist activity, combined with any inherent activity of the reactants chosen to achieve the final compound.
Except for items numbered 22 and 24–28 in Table III, substantially all of the guanidino compounds of this invention, as a result of their structure-activity relationship, are potent with respect to all of the above activities. However, as would be expected, various compounds have different, higher levels of, activities and properties which are listed as “Specific Properties”, with the Compounds numbered, in Table IV, below, according to the numbers in Tables I and II.

| Molecule | Specific Properties |
| --- | --- |
| 3-(PGE2carbonyl)-3-estrone ester [Compound 156] | 27 (some agonist activity) |
| 1,2-Bis(theophylline-7-acetamido)-ethane [Compound 164] | 3, 15, anesthesia antagonist |
| 3-(Guanidinoacetoxy)-estrone [Compound 148] | 27 |

same assay, conditions: codes of Table III; […]

| Molecule | Specific Properties |
| --- | --- |
| 4-4′-(1,2-Diethyl-1,2-ethenediyl)-4-guanidinoacetoxyphenyl-4′-(6-hydroxy-2,5,7,8-tetramethylchroman-2-carbonyl)-phenol ester [Compound 143] | 27 (Estrogenic antagonist (breast cancer treatment)) |
| N-[(6-PGE1carbonyl)-2,5,7,8-tetramethylchroman-2-carboxamido]-1-aminophthlazine [Compound 153] | 6–11 (anti-impotence) |
| N-(2,6-Dichlorbenzylidene)-3-(5-hydroxyindole)ethylamine [Compound 78] | 5 |
| CC(=O)[C@@]1(OC(=O)CNC(=N)N)CCC2C3C=C(Cl)C4=CC(=O)C5C[C@@H]5C4(C)C3CCC21C (stereo partly drawn) [Compound 129, 6-Chloro-1,2,Dihydro-17-guanidinoacetoxy-3′H-cyclopropa[1,2]pregna-1,4,6-triene-3,20-dione] | 26 (Androgenic antagonist) |
| N-(PGE1carboxamido)-1-aminophthalazine [Compound 152] | 6–11 (anti-impotence) |
| 7-(3,5-Dichorophenylhydrazido)-7-acetyltheophylline [Compound 102] | 3, 14, 16, 17 antagonist |
| C[N+](C)(C)CCOC(=O)CNC(=N)N [Compound 32] | 1, 15, cholinergic |
| 2-(2,6-Diisopropylanilino)-2-methyleneimidazole [Compound 101] | adrenergic antagonist |
| COc1cc(CC(=O)Oc2ccc3[nH]cc(CCN)c3c2)cc(OC)c1OC [Compound 74, 5-(3,4,5-Trimethoxyphenylacetoxy)-tryptamine] | 5 |
| N-(PGE1carboxamido)-guanidine [Compound 151] | 6–11 (anti-impotence) |
| 17-(PGE1carbonyl)-17-cyproterone ester [Compound 154] | 26 (Androgenic antagonist) |
| 4-(PGE2carbonylphenyl)-4-4′(1,2-diethyl-1,2-ethenediyl)-4-phenol [Compound 157] | 27 (some agonist activity) |
| 5-Methoxy-2-methyl-3-indoleacetamidoguanidine [Compound 103] | 5 |

same assay, conditions: codes of Table III; higher levels of activity

| Molecule | Specific Properties |
| --- | --- |
| N=C(N)c1ccc(OCCCCCOc2ccc(C(=N)N)cc2)cc1 [Compound 192, 4,4′-[Pentanediylbis(oxy)]bis-benzenecarboximidamide, reference compound] | 1, 2, 8–10, 15, 29 Adrenergic antagonist |
| N=C(N)c1ccc(C(=O)NC(=O)CCCCC2SCC3NC(=O)NC32)cc1 (stereo not drawn) [Compound 233, N-(Hexahydro-2-oxo-1H-thieno[3,4-d]-imidazole-4-pentanoyl)-4-amidinobenzamide] | 1, 2, 4, 6, 9, 10, 14, 15, 17, 23, 29 Antialopecia, |
| Cn1c(=O)c2c(ncn2CC(=O)NCc2nc3ccccc3[nH]2)n(C)c1=O [Compound 96, 2-(Theophylline-7-acetamido)-2-methylbenzimidazole] | 3, adrenergic antagonist, 12 |
| N=C(N)NNC(=O)Cc1c[nH]c2ccc(O)cc12 [Compound 38, 5-Hydroxyindole-3-acetamidoguanidine] | 5 |
| Cn1c(=O)c2c(ncn2CC(=O)NC(=O)c2ccc(C(=N)N)cc2)n(C)c1=O [Compound 97, 4-(Amidino)-N-(theophylline-7-acetyl)-benzamide] | 3, 2, 2, antagonist, 12 |
| CCCCCC(O)/C=C/C1C(O)CC(=O)[C@@H]1CCCCCCCC(=O)OCC(O)COC(=O)CCCCCCC[C@H]1C(=O)CC(O)C1/C=C/C(O)CCCCC (stereo partly drawn) [Compound 170, 1,3-Di-PGE1-2-propanol-ester] | 8, 9, 12, Vasodilator |
| COc1cc(N=Cc2ncc[nH]2)cc(OC)c1OC [Compound 98] | adrenergic antagonist |
| CC(=O)[C@@]1(OC(=O)CNC(=N)N)CCC2C3C=C(C)C4=CC(=O)CCC4(C)C3CCC21C (stereo partly drawn) [Compound 184, 17-(Guanidinoacetoxy)-megostrol] | 27, Progestin, androgenic |
| CC(=O)[C@@]1(OC(=O)CNC(=N)N)CCC2C3CCC4=CC(=O)CCC4(C)C3CCC21C (stereo partly drawn) [Compound 186, 17-(Guanidinoacetoxy)-progesterone] | 1927, Progestin, androgenic |
| 2-(3,4,5-Trimethoxybenzylidineamino)-2-methylbenzimidazole [Compound 100] | adrenergic antagonist |
| CC1(N=Cc2c(Cl)cccc2Cl)N=c2ccccc2=N1 [Compound 162, 2-(2,6-Dichlorobenzylideneamino)-2-methyl-benzimidazole] | 14, 17 adrenergic antagonist, 22, 23 |
| 17-[2-6-(N-1-Aminophthalazino-1-amidopropionyl)-2,5,7,8-tetramethylchroman-2-carbonyl]-17-cyproterone ester [Compound 140] | 26 (ESP Topical to treat male pattern |
| CC/C(=C(/CC)c1ccc(OC(=O)CNC(=N)N)cc1)c1ccc(OC(=O)CNC(=N)N)cc1 [Compound 127, 4,4′-(1,2-Diethyl-1,2-ethenediyl)bis-phenoldiguanidinoacetate ester] | 27 (Estrogenic antagonist (breast cancer treatment)) |
| N=C(N)c1ccc(C(=O)NC(c2ccccc2)c2ccccc2)cc1 [Compound 223, N-(Diphenylmethyl)-4-(amidino)-Benzamide] | 1, 2, 4, 6, 9, 10, 14, 15, 17, 23, 29 Adrenergic |
| CC/C(=C(/CC)c1ccc(OC(=O)C2(C)CCc3c(C)c(OC(=O)CNC(=N)N)c(C)c(C)c3O2)cc1)c1ccc(O)cc1 (stereo not drawn) [Compound 128, 2-[4,4′-(1,2-Diethyl-1,2-ethenediyl)phenol]-6-(guanidinoacetoxy)-2,5,7,8-tetramethylchroman-2-carbonyl-2-phenol ester] | 27 (Estrogenic antagonist (breast cancer treatment)) |
| N=C(N)c1ccc(C(=O)NC(=O)Cc2c(Cl)cccc2Cl)cc1 [Compound 99, 4-(Amidino)-N-(2,6-dichlorophenylacetyl)-benzamide] | adrenergic antagonist |
| CC(=O)[C@@]1(OC(=O)CNC(=N)N)CCC2C3CC(C)C4=CC(=O)CCC4(C)C3CCC21C (stereo partly drawn) [Compound 185, 17-(Guanidinoacetoxy)-medroxyprogesterone] | 27, Progestin, androgenic |
| Cl.Cn1c(=O)c2c(ncn2CC(=O)Nc2nc(N)nc(NC(=O)C[N+](C)(C)C)n2)n(C)c1=O [Compound 31, 2-(Amino)-4-(1-carboxamido-N,N,N-trimethylmethaniminium)-6-(theophylline-7-acetamido)-1,3,5-s-triazine] | 2, 3, 15, cholinergic |
| Bis(3,17-guanidinoacetoxy)estradiaole [Compound 147] | 27 (Estrogenic antagonist (breast cancer treatment)) |
| COc1cc(CNC(=O)CNC(=N)N)ccc1O [Compound 104, N-(4-Hydroxy-3-methoxybenzyl)-guanidinoacetamide] | 2 (Antispasticity and muscle relaxant) |
| Guanidinamidocarbonyl-1-cholinepentanoic acid ester [Compound 167] | Adrenergic, cholinergic, 22, 23 |
| CC/C(=C(\c1ccccc1)c1ccc(OC(=O)CNC(=N)N)cc1)c1ccccc1 [Compound 187, [Z]-2-[4-(1,2-Diphenyl-1-butenyl)-phenoxy]-guanidineacetate ester] | 27, Progestin |
| Cc1c(C)c2c(c(C)c1O)CCC(C)(C(=O)Nc1ccc(C(=O)NNC(=N)N)cc1)O2 (stereo not drawn) [Compound 135, 4-N-(G-Hydroxy-2,5,7,8-tetramethylchroman-2-carboxamido)-4-benzamidoguanidine] | 9–15 |
| [H]/N=C(\N/C(=N/[H])Nc1ccc(Cl)cc1)NC(C)C [Compound 217, reference compound] | 1, 4, 6–9, 16, 17, 19 antimalarial |
| Bis(3,17-PGE2carbonyl)-estradiole ester [Compound 158] | 27 (Estrogenic antagonist (breast cancer treatment)) |
| CC(C)c1cccc(C(C)C)c1C=NCC(=N)N [Compound 163, 2,6-Diisopropylbenzylideneaminomethylamidine] | 14, 17, adrenergic antagonist, 22, 23 |
